Molecular target: Smo (Homo sapiens, UniProt Q99835)
Experiment: Bodipy-Cyclopamine Binding Assay (confirmation assay), Hek293-SMO cells
Protocol: The confirmation assay is based on Bodipy-Cyclopamine Binding Assay:
Bodipy-Cyclopamine binding assay is a fluorescence based assay used to analysis the binding of Smo agonists. […] Bodipy-Cyclopamine was purchased from Toronto Research Chemicals and dissolved in methanol.
Hek293-SMO cells were plated in 96-well-plate (3340, Corning), the final cell concentration is 15,000 cells/well in 100 ul 1% serum-containing DMEM. The plates were incubated in 37 degree for additional 48 hours.
Hek293-SMO plate were washed with PBS and fixed with 4% paraformaldehyde (PFA)/PBS for 20 min at room temperature. After removing the PFA buffer, the cells were incubated with DAPI/PBS (5 ug/mL) for 10 min and followed by twice wash with PBS. After wash, cells were incubated for 2 h at room temperature in binding buffer (HBSS W/O Ca^2+ and Mg^2+) containing 100 nM bodipy-cyclopamine and compounds over a range of concentrations from 0-10 μM for competitive binding. After incubation, the cells were washed twice with the PBS. The fluorescence images were automatically captured and analyzed by a high content fluorescence imaging system (Arrayscan VTI, Thermo). GDC-0449 was used as reference compound to normalize the data. IC50 values were calculated with GraphPad Prism software using the sigmoidal dose-response function. The Ki was calculated following the Cheng-Prusoff equation, as Ki=IC50/[1+[bodipy-cyclopamine]/Kd)].

Chain of Smo (Q99835 28-787): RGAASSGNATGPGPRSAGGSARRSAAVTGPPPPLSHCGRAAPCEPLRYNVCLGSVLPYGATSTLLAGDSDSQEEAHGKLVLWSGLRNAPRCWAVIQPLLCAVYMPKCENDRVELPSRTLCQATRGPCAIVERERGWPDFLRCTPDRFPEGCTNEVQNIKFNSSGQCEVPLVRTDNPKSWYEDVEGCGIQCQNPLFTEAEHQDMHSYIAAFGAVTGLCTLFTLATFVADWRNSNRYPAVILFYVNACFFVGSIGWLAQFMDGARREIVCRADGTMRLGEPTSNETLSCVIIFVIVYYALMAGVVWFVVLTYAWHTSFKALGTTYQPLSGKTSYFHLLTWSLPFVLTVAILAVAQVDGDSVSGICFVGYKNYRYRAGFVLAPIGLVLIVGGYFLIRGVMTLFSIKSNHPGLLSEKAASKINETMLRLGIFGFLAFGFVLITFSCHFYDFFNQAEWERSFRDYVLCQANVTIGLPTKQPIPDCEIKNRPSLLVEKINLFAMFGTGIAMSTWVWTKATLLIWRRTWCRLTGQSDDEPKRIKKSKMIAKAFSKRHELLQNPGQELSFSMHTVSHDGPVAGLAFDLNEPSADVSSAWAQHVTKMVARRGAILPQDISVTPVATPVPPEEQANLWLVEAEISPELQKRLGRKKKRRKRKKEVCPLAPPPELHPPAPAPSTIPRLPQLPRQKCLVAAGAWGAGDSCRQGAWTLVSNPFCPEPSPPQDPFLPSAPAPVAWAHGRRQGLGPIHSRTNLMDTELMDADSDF

| SMILES | IC50 |
| --- | --- |
| Cc1cnc(-c2cc(N3CCc4nc(NS(C)(=O)=O)sc4C3)ncc2Cl)c(C)c1 [Compound A-45, N-(5-(5′-chloro-3,5-dimethyl-2,4′-bipyridin-2′-yl)-4,5,6,7-tetrahydro-thiazolo-[5,4-c]pyridin-2-yl)methane-sulfon-amide] | > 1000 nM |
| Cc1cnc(-c2cc(N3CCc4nc(OC5CCC5)sc4C3)ncc2Cl)c(C)c1 [Compound A-47, 5-(5′-chloro-3,5-dimethyl-2,4′-bipyridin-2′-yl)-2-cyclobutoxy-4,5,6,7-tetrahydro-thiazolo-[5,4-c]pyridine] | 88.3 nM |
| Cc1cnc(-c2cc(N3CCc4nc(Nc5ccccc5)sc4C3)ncc2Cl)c(C)c1 [Compound A-48, 5-(5′-chloro-3,5-dimethyl-2,4′-bipyridin-2′-yl)-N-phenyl-4,5,6,7-tetrahydro-thiazolo-[5,4-c]pyridin-2-amine] | 330 nM |
| CNc1ncc2c(n1)CCN(c1cc(-c3ncc(C)cc3C)c(Cl)cn1)C2 [Compound A-50, 6-(5′-chloro-3,5-dimethyl-2,4′-bipyridin-2′-yl)-N-methyl-5,6,7,8-tetrahydro-pyrido-[4,3-d]pyrimidin-2-amine] | 232 nM |
| CCNc1ncc2c(n1)CCN(c1cc(-c3ncc(C)cc3C)c(Cl)cn1)C2 [Compound A-51, 6-(5′-chloro-3,5-dimethyl-2,4′-bipyridin-2′-yl)-N-ethyl-5,6,7,8-tetrahydro-pyrido-[4,3-d]pyrimidin-2-amine] | 16.8 nM |
| Cc1cnc(-c2cc(N3CCc4nc(NC5CC5)ncc4C3)ncc2Cl)c(C)c1 [Compound A-52, 6-(5′-chloro-3,5-dimethyl-2,4′-bipyridin-2′-yl)-N-cyclopropyl-5,6,7,8-tetrahydropyrido[4,3-d]pyrimidin-2-amine] | 5.4 nM |
| Cc1cnc(-c2cc(N3CCc4nc(N5CCCC5)ncc4C3)ncc2Cl)c(C)c1 [Compound A-53, 6-(5′-chloro-3,5-dimethyl-2,4′-bipyridin-2′-yl)-2-(pyrrolidin-1-yl)-5,6,7,8-tetrahydro-pyrido-[4,3-d]pyrimidine] | 24.9 nM |
| Cc1cnc(-c2cc(N3CCc4nc(N(C)CCO)ncc4C3)ncc2Cl)c(C)c1 [Compound A-54, 2-((6-(5′-chloro-3,5-dimethyl-2,4′-bipyridin-2′-yl)-5,6,7,8-tetrahydro-pyrido-[4,3-d]pyrimidin-2-yl)(methyl)-amino)ethanol] | 22.9 nM |
| Cc1cnc(-c2cc(N3CCc4nc(N5CCC(O)CC5)ncc4C3)ncc2Cl)c(C)c1 [Compound A-55, 1-(6-(5′-chloro-3,5-dimethyl-2,4′-bipyridin-2′-yl)-5,6,7,8-tetrahydro-pyrido-[4,3-d]pyrimidin-2-yl)piperidin-4-ol] | 5.1 nM |
| Cc1cnc(-c2cc(N3CCc4nc(N5CCOCC5)ncc4C3)ncc2Cl)c(C)c1 [Compound A-56, 4-(6-(5′-chloro-3,5-dimethyl-2,4′-bipyridin-2′-yl)-5,6,7,8-tetrahydro-pyrido-[4,3-d]pyrimidin-2-yl)morpholine] | 48.7 nM |
| Cc1cnc(-c2cc(N3CCc4nc(N5CC(C)NC(C)C5)ncc4C3)ncc2Cl)c(C)c1 (stereo not shown) [Compound A-57, 6-(5′-chloro-3,5-dimethyl-2,4′-bipyridin-2′-yl)-2-(3,5-dimethyl-piperazin-1-yl)-5,6,7,8-tetrahydro-pyrido-[4,3-d]pyrimidine] | 11.1 nM |
| Cc1cnc(-c2cc(N3CCc4nc(N(C)S(C)(=O)=O)ncc4C3)ncc2Cl)c(C)c1 [Compound A-58, N-(6-(5′-chloro-3,5-dimethyl-2,4′-bipyridin-2′-yl)-5,6,7,8-tetrahydro-pyrido-[4,3-d]pyrim-idin-2-yl)-N-methylmethane-sulfonamide] | 59.8 nM |
| Cc1cnc(-c2cc(N3CCc4nc(-n5cccn5)ncc4C3)ncc2Cl)c(C)c1 [Compound A-59, 6-(5′-chloro-3,5-dimethyl-2,4′-bipyridin-2′-yl)-2-(1H-pyrazol-1-yl)-5,6,7,8-tetrahydro-pyrido-[4,3-d]pyrim-idine] | 48.8 nM |
| Cc1cnc(-c2cc(N3CCc4nc(NC(C)C)ncc4C3)ncc2Cl)c(C)c1 [Compound A-60, 6-(5′-chloro-3,5-dimethyl-2,4′-bipyridin-2′-yl)-N-isopropyl-5,6,7,8-tetrahydro-pyrido-[4,3-d]pyrimidin-2-amine] | 18 nM |
| Cc1cnc(-c2cc(N3CCc4nc(NC(C)(C)C)ncc4C3)ncc2Cl)c(C)c1 [Compound A-61, N-tert-butyl-6-(5′-chloro-3,5-dimethyl-2,4′-bipyridin-2′-yl)-5,6,7,8-tetrahydro-pyrido-[4,3-d]pyrimidin-2-amine] | 14.1 nM |
| Cc1cnc(-c2cc(N3CCc4nc(Nc5ccccc5)ncc4C3)ncc2Cl)c(C)c1 [Compound A-62, 6-(5′-chloro-3,5-dimethyl-2,4′-bipyridin-2′-yl)-N-phenyl-5,6,7,8-tetrahydro-pyrido-[4,3-d]pyrimidin-2-amine] | 51.1 nM |
| CSc1ncc2c(n1)CCN(c1cc(-c3ncc(C)cc3C)c(Cl)cn1)C2 [Compound A-63, 6-(5′-chloro-3,5-dimethyl-2,4′-bipyridin-2′-yl)-2-(methylthio)-5,6,7,8-tetrahydro-pyrido-[4,3-d]pyrimidine] | 87.6 nM |

More lines, now with the values ahead:

| IC50 | SMILES |
| --- | --- |
| 500 nM | Cc1cnc(-c2cc(N3CCc4nc(S(C)(=O)=O)ncc4C3)ncc2Cl)c(C)c1 [Compound A-64, 6-(5′-chloro-3,5-dimethyl-2,4′-bipyridin-2′-yl)-2-(methyl-sulfonyl)-5,6,7,8-tetrahydro-pyrido-[4,3-d]pyrim-idine] |
| 85.3 nM | Cc1cnc(-c2cc(N3CCc4nc(NCC5CC5)ncc4C3)ncc2Cl)c(C)c1 [Compound A-65, 6-(5′-chloro-3,5-dimethyl-2,4′-bipyridin-2′-yl)-N-(cyclopropyl-meth-yl)-5,6,7,8-tetrahydro-pyrido-[4,3-d]pyrimidin-2-amine] |
| 85.1 nM | Cc1cnc(-c2cc(N3CCc4nc(N5CCC(O)C5)ncc4C3)ncc2Cl)c(C)c1 (stereo not shown) [Compound A-66, 1-(6-(5′-chloro-3,5-dimethyl-2,4′-bipyridin-2′-yl)-5,6,7,8-tetrahydro-pyrido-[4,3-d]pyrim-idin-2-yl)pyrrolidin-3-ol] |
| 207 nM | CCOc1ncc2c(n1)CCN(c1cc(-c3ncc(C)cc3C)c(Cl)cn1)C2 [Compound A-67, 6-(5′-chloro-3,5-dimethyl-2,4′-bipyridin-2′-yl)-2-ethoxy-5,6,7,8-tetrahydro-pyrido-[4,3-d]pyrim-idine] |
| 163 nM | COC1CCN(c2ncc3c(n2)CCN(c2cc(-c4ncc(C)cc4C)c(Cl)cn2)C3)CC1 [Compound A-68, 6-(5′-chloro-3,5-dimethyl-2,4′-bipyridin-2′-yl)-2-(4-methoxy-piperidin-1-yl)-5,6,7,8-tetrahydro-pyrido-[4,3-d]pyrim-idine] |
| 97.8 nM | Cc1cnc(-c2cc(N3CCc4nc(OC(C)C)ncc4C3)ncc2Cl)c(C)c1 [Compound A-69, 6-(5′-chloro-3,5-dimethyl-2,4′-bipyridin-2′-yl)-2-isopropoxy-5,6,7,8-tetrahydro-pyrido-[4,3-d]pyrim-idine] |
| 117 nM | Cc1cnc(-c2cc(N3CCc4nc(NC5CCCC5)ncc4C3)ncc2Cl)c(C)c1 [Compound A-70, 6-(5′-chloro-3,5-dimethyl-2,4′-bipyridin-2′-yl)-N-cyclopentyl-5,6,7,8-tetrahydro-pyrido-[4,3-d]pyrim-idin-2-amine] |
| 77.1 nM | Cc1cnc(-c2cc(N3CCc4nc(OC5CCCC5)ncc4C3)ncc2Cl)c(C)c1 [Compound A-71, 6-(5′-chloro-3,5-dimethyl-2,4′-bipyridin-2′-yl)-2-(cyclo-pentyloxy)-5,6,7,8-tetrahydro-pyrido-[4,3-d]pyrim-idine] |

From patent US9695178B2, “6-(2-pyridyl)-7,8-dihydro-5H-pyrido[4,3-D]pyrimidine analogs as hedgehog pathway signaling inhibitors and therapeutic applications thereof” (Suzhou Yunxuan Yiyao Keji Youxian Gongsi, priority 2013, dated 2017)
